Test results reported in patent US20030083324A1, “Photosensitizing ointment” (CeramOptec Industries, Inc., priority 2000, published 2003).

Conditions: especially when diluted with cream to <20% (w/w)
From the text: The phototoxic compounds can be mixed with the carrier in a solubilized form.

Compound: COCCO [2-methoxy ethanol]
- toxicity to human skin: no toxicity
